From patent US5393742A, “Preparation for treating renal disease” (MECT Corporation, priority 1990, dated 1995)
Read-outs that look alike come from different tables or passages of the source.

Assays:
rat GEC = details: cited from earlier work
[1] = tested on: Puromycin aminonucleoside (PAN) induced nephritis; assay type: in vivo, Male Sprague-Dawley (SD) rats; details: for Effect on renal disease, nephrosis or nephrotic syndrome (in words): PAN-induced nephritis; for Kidney Moist Weight / Weight Gain Rate / Urinary Protein Content: 3 times a day; for Kidney Moist Weight / Weight Gain Rate: 14 days after PAN
Procedure: Effect on Puromycin aminonucleoside (PAN) induced nephritis, i.e. PAN induced nephrosis or nephrotic syndrome:
Male Sprague-Dawley (SD) rats weighing 160-180 g were used.
As the nephritis, i.e. nephrosis or nephrotic syndrome, causing substance, PAN (made by Sigma Co., Ltd.) was used. As the test compound, sodium N-acetylneuraminate (made by MECT Corporation) was used.
PAN was intraperitoneally administered in an amount of 80 mg per 1 kg of body weight to rats to cause nephritis, i.e. nephrosis or nephrotic syndrome. Then, the test compound (Groups I, II or III) or physiological saline solution (Group IV) was intraperitoneally administered 3 times a day (morning, noon and evening) for 14 consecutive days immediately after treatment with PAN as follows. As a positive control, methylprednisolone was subcutaneously administered to rats of Group V once a day (noon) for 14 consecutive days immediately after treatment with PAN. Moreover, 3, 6, 9 and 13 days after treatment with PAN, 5 ml water was loaded, and the urine was collected for 6 hours. Fourteen days after treatment with PAN, autopsies were made, the kidneys were extirpated and their moist weights were measured.
Group I: 0.1 mg Sodium N-acetylneuraminate per 1 kg of body weight was administered.
Group II: 0.5 mg Sodium N-acetylneuraminate per 1 kg of body weight was administered.
Group III: 1.0 mg Sodium N-acetylneuraminate per 1 kg of body weight was administered.
Group IV: 2.5 ml Physiological saline solution per 1 kg of body weight was administered.
Group V: 2 mg Methylprednisolone per 1 kg of body weight was administered.
Group VI: Normal rats (no drug was given).
Regarding the results of therapeutic effect for treating renal disease (nephrotic syndrome) of the given NANA compound per Example 1 above, it will be appreciated that the test compound sodium N-acetylneuraminate (Groups I, II and III) was dissolved in physiological saline and intraperitoneally administered, compared to intraperitoneal administration of physiological saline alone (Group IV) and subcutaneous administration of methylprednisolone (Group V).

[2] = cited from earlier work
[3] = tested on: cilium cells from the human airway and cilia of frog palatine mucosa; details: expectorant, by inhalation; cited from earlier work

CN(C)c1ncnc2c1ncn2[C@@H]1O[C@H](CO)[C@@H](N)[C@H]1O [PAN, puromycin aminonucleoside]
Effect on heparan sulfate proteoglycan (HSPG) (rat GEC): reduces heparan sulfate proteoglycan (HSPG)

CC(=O)N[C@H]1[C@H]([C@H](O)[C@H](O)CO)OC(O)(C(=O)O)C[C@@H]1O (stereo partly drawn) [N-acetylneuraminic acid]
Effect on renal disease, nephrosis or nephrotic syndrome (in words) [1]: has an inhibitory effect on nephritis | anti vital action ([2]; article [1]): anti vital action | anti allergic action ([2]; article [4], guinea pigs): anti allergic action | anti inflammatory action ([2]; articles [2], [3]): anti inflammatory action | Effect on ciliary motion in the airway [3]: directly promotes ciliary motion in the airway

CC(=O)N[C@H]1[C@H]([C@H](O)[C@H](O)CO)OC(O)(C(=O)[O-])C[C@@H]1O.[Na+] (stereo partly drawn)
Kidney Moist Weight ([1]; 0.1 mg/kg i.p.): 0.47 ± 0.02 g/100 g | Weight Gain Rate ([1]; 0.1 mg/kg i.p.): 127.1 ± 2.0% | Kidney Moist Weight ([1]; 0.5 mg/kg i.p.): 0.44 ± 0.02 g/100 g | Weight Gain Rate ([1]; 0.5 mg/kg i.p.): 128.4 ± 1.8% | Kidney Moist Weight ([1]; 1.0 mg/kg i.p.): 0.42 ± 0.02 g/100 g | Weight Gain Rate ([1]; 1.0 mg/kg i.p.): 131.3 ± 1.9% | Urinary Protein Content ([1]; 3rd Day, 0.1 mg/kg i.p.): 14.1 ± 1.1 mg/24 hours | Urinary Protein Content ([1]; 3rd Day, 0.5 mg/kg i.p.): 11.3 ± 0.8 mg/24 hours | Urinary Protein Content ([1]; 3rd Day, 1.0 mg/kg i.p.): 5.1 ± 0.4 mg/24 hours | Urinary Protein Content ([1]; 6th Day, 0.1 mg/kg i.p.): 83.4 ± 8.6 mg/24 hours | Urinary Protein Content ([1]; 6th Day, 0.5 mg/kg i.p.): 49.1 ± 13.6 mg/24 hours | Urinary Protein Content ([1]; 6th Day, 1.0 mg/kg i.p.): 50.5 ± 10.7 mg/24 hours | Urinary Protein Content ([1]; 9th Day, 0.1 mg/kg i.p.): 99.6 ± 14.2 mg/24 hours | Urinary Protein Content ([1]; 9th Day, 0.5 mg/kg i.p.): 59.9 ± 14.7 mg/24 hours | Urinary Protein Content ([1]; 9th Day, 1.0 mg/kg i.p.): 51.2 ± 15.6 mg/24 hours | Urinary Protein Content ([1]; 13th Day, 0.1 mg/kg i.p.): 109.9 ± 12.9 mg/24 hours | Urinary Protein Content ([1]; 13th Day, 0.5 mg/kg i.p.): 94.5 ± 30.4 mg/24 hours | Urinary Protein Content ([1]; 13th Day, 1.0 mg/kg i.p.): 77.9 ± 17.9 mg/24 hours | Systemic side effect (in words) ([1]; PAN rats, weight gain as index of systemic effect): does not show such side effect | Effect on renal disease, nephrosis or nephrotic syndrome (in words) [1]: has a therapeutic effect on renal disease

C[C@]12C=CC(=O)C=C1CC[C@@H]1[C@@H]2[C@@H](O)C[C@@]2(C)[C@H]1CC[C@]2(O)C(=O)CO [prednisolone, reference compound]
Effect on increase of kidney moist weight (in words) ([1]; PAN rats, 14 days): inhibits increase in kidney moist weight
